Source: patent US20230391792A1, “METHODS AND COMPOSITIONS FOR TARGETED PROTEIN DEGRADATION” (Ranok Therapeutics (Hangzhou) Co. Ltd., priority 2020, published 2023)

These compounds were tested against T1, HSP90α protein (N-terminal) (Homo sapiens, UniProt P07900) (assay: HSP90α-binding fluorescent polarization (FP) assay, competition with BODIPY-labeled RNK04010). Settings: probe RNK04010 (BODIPY-labeled) 5 nM, 25° C. 300 min.
T1 construct: purchased BPS Bioscience #50298
Description: Binding of test compounds to HSP90α protein was measured by fluorescent polarization (FP) using the HSP90α (N-terminal) Assay Kit (BPS Bioscience, #50298), following the manufacturer's instructions, except as noted. Fluorescently labeled HSP90-binding compounds, either the provided FITC-geldanamycin (5 nM final concentration) or RNK04010, a triazolone-based HSP90-binding small molecule labeled with BODIPY through a piperizine-phenyl linker (5 nM final concentration) were employed. A 2.5-fold serial dilution of each test compound ranging from 20 μM to 5.2 nM was assayed for binding to HSP90α. After the final step of adding HSP90α protein to each assay well, plates were mixed by brief shaking, incubated at 25° C. for 120 min for FITC-geldanamycin or 300 min for RNK04010, and fluorescence was measured using a PerkinElmer EnVision Plate Reader.
HSP90α-binding fluorescent polarization (FP) assays measuring competition with the fluorescently labeled HSP90 binders, FITC-geldanamycin or RNK04010 (BODIPY-labeled), were applied to assess the binding capabilities of CHAMP molecules to HSP90.

| SMILES | IC50 [nM] |
| --- | --- |
| Cc1sc2c(c1C)C(c1ccc(Cl)cc1)=N[C@@H](CC(=O)N1CCC(CCN3CCC(Cc4ccc(-n5c(O)nnc5-c5cc(C(C)C)c(O)cc5O)cc4)CC3)CC1)c1nnc(C)n1-2 [Compound 55] | < 100 |
| Cc1sc2c(c1C)C(c1ccc(Cl)cc1)=N[C@@H](CC(=O)N[C@H](C)c1cccc(CN3CCC(Cc4ccc(-n5c(O)nnc5-c5cc(C(C)C)c(O)cc5O)cc4)CC3)c1)c1nnc(C)n1-2 [Compound 56] | < 100 |
| Cc1sc2c(c1C)C(c1ccc(Cl)cc1)=N[C@@H](CC(=O)NCc1ccc(CN3CCC(Cc4ccc(-n5c(O)nnc5-c5cc(C(C)C)c(O)cc5O)cc4)CC3)cc1)c1nnc(C)n1-2 [Compound 60] | < 100 |
| Cc1sc2c(c1C)C(c1ccc(Cl)cc1)=N[C@@H](CC(=O)N(C)[C@@H](C)c1ccc(CN3CCC(Cc4ccc(-n5c(O)nnc5-c5cc(C(C)C)c(O)cc5O)cc4)CC3)cc1)c1nnc(C)n1-2 [Compound 63] | 100 to 1000 |
| CCN(Cc1ccc(OCCCNC(=O)C[C@@H]2N=C(c3ccc(Cl)cc3)c3c(sc(C)c3C)-n3c(C)nnc32)cc1)Cc1ccc(-n2c(C(=O)NCC(F)(F)F)nnc2-c2cc(C(C)C)c(O)cc2O)cc1 [Compound 72] | 100 to 1000 |
| CCc1cc(-c2nnc(C(=O)NC(C)C)n2-c2ccc(CN3CCN(CC4CCN(C(=O)C[C@@H]5N=C(c6ccc(Cl)cc6)c6c(sc(C)c6C)-n6c(C)nnc65)CC4)CC3)cc2)c(O)cc1O [Compound 74] | < 100 |
| Cc1sc2c(c1C)C(c1ccc(Cl)cc1)=N[C@@H](CC(=O)N1CCC(CN3CCN(Cc4ccc(-n5c(C(=O)NCCN6CCCCC6)nnc5-c5cc(C(C)C)c(O)cc5O)cc4)CC3)CC1)c1nnc(C)n1-2 [Compound 76] | < 100 |
| Cc1sc2c(c1C)C(c1ccc(Cl)cc1)=N[C@@H](CC(=O)N1CCC(CN3CCN(Cc4ccc(-n5c(C(=O)NC(C)C)nnc5-c5cc(C(C)C)c(O)cc5O)cc4)CC3)CC1)c1nnc(C)n1-2 [Compound 77] | 100 to 1000 |
| CCc1cc(-c2nnc(C(=O)NCCN3CCCCC3)n2-c2ccc(CN3CCN(CC4CCN(C(=O)C[C@@H]5N=C(c6ccc(Cl)cc6)c6c(sc(C)c6C)-n6c(C)nnc65)CC4)CC3)cc2)c(O)cc1O [Compound 82] | < 100 |
| COc1cccc(-c2cc(C(=O)Nc3ccc(-c4ccc(OC5CCN(C)CC5)cc4OCCN(C)C(=O)CNC(=O)C[C@@H]4N=C(c5ccc(Cl)cc5)c5c(sc(C)c5C)-n5c(C)nnc54)cc3)ccc2OC)c1 [Compound 83] | > 1000 |
| COc1cccc(-c2cc(C(=O)Nc3ccc(-c4ccc(OC5CCN(C(=O)C[C@@H]6N=C(c7ccc(Cl)cc7)c7c(sc(C)c7C)-n7c(C)nnc76)CC5)cc4OCCN(C)C)cc3)ccc2OC)c1 [Compound 84] | > 1000 |
| Cc1sc2c(c1C)C(c1ccc(Cl)cc1)=N[C@@H](CC(=O)N1CCC(CN3CCN(Cc4ccc(-n5c(C(=O)NC(C)C)nnc5-c5ccc(O)cc5O)cc4)CC3)CC1)c1nnc(C)n1-2 [Compound 91] | < 100 |
| CCCc1cc(-c2nnc(C(=O)NCCN3CCCCC3)n2-c2ccc(CN3CCN(CC4CCN(C(=O)C[C@@H]5N=C(c6ccc(Cl)cc6)c6c(sc(C)c6C)-n6c(C)nnc65)CC4)CC3)cc2)c(O)cc1O [Compound 92] | < 100 |
| CCc1cc(-c2nnc(C(=O)NC(CC)CC)n2-c2ccc(CN3CCN(CC4CCN(C(=O)C[C@@H]5N=C(c6ccc(Cl)cc6)c6c(sc(C)c6C)-n6c(C)nnc65)CC4)CC3)cc2)c(O)cc1O [Compound 103] | 100 to 1000 |
| CCc1cc(-c2nnc(C(=O)NC3(C)CC3)n2-c2ccc(CN3CCN(CC4CCN(C(=O)C[C@@H]5N=C(c6ccc(Cl)cc6)c6c(sc(C)c6C)-n6c(C)nnc65)CC4)CC3)cc2)c(O)cc1O [Compound 104] | < 100 |
| CCc1cc(-c2nnc(C(=O)NC(C)C(F)(F)F)n2-c2ccc(CN3CCN(CC4CCN(C(=O)C[C@@H]5N=C(c6ccc(Cl)cc6)c6c(sc(C)c6C)-n6c(C)nnc65)CC4)CC3)cc2)c(O)cc1O (stereo partly shown) [Compound 105] | 100 to 1000 |
| Cc1sc2c(c1C)C(c1ccc(Cl)cc1)=N[C@@H](CC(=O)N1CCC(Cc3ccc(CN(C)Cc4ccc(-n5c(C(=O)NCC(F)(F)F)nnc5-c5cc(C(C)C)c(O)cc5O)cc4)cn3)CC1)c1nnc(C)n1-2 [Compound 109] | 100 to 1000 |
| CCOc1cc(N2CCC(C(=O)NCc3ccc(-n4c(O)nnc4-c4ccc(O)cc4O)cc3)CC2)ccc1Nc1ncc2c(n1)N(C)c1ccccc1C(=O)N2C [Compound 119] | > 1000 |
| CCCc1cc(-c2nnc(O)n2-c2ccc(CNC(=O)C3CCN(c4ccc(Nc5ncc6c(n5)N(C)c5ccccc5C(=O)N6C)c(OCC)c4)CC3)cc2)c(O)cc1O [Compound 121] | > 1000 |
| CCOc1cc(N2CCC(C(=O)NCc3ccc(-n4c(O)nnc4-c4cc(C(C)C)c(O)cc4O)cc3C(F)(F)F)CC2)ccc1Nc1ncc2c(n1)N(C)c1ccccc1C(=O)N2C [Compound 122] | 100 to 1000 |
| CCOc1cc(N2CCC(C(=O)NCc3ccc(-n4c(O)nnc4-c4cc(CC)c(O)cc4O)cc3F)CC2)ccc1Nc1ncc2c(n1)N(C)c1ccccc1C(=O)N2C [Compound 125] | > 1000 |
| COc1cccc(-c2cc(C(=O)Nc3ccc(-c4ccc(OC5CCN(C(=O)C[C@@H]6N=C(c7ccc(Cl)cc7)c7c(sc(C)c7C)-n7c(C)nnc76)CC5)cc4O)cc3)ccc2OC)c1 [Compound 131] | > 1000 |
| COc1cccc(-c2cc(C(=O)Nc3ccc(-c4ccc(OC5CCN(C(=O)CNC(=O)N[C@@H]6N=C(c7ccc(Cl)cc7)c7c(sc(C)c7C)-n7c(C)nnc76)CC5)cc4O)cc3)ccc2OC)c1 [Compound 132] | > 1000 |
| CCOc1cc(N2CCC(C(=O)NCCCNC(=O)O[C@H]3CC[C@H](Nc4cc(-n5nc(C(F)(F)F)c6c5CC(C)(C)CC6=O)ccc4C(N)=O)CC3)CC2)ccc1Nc1ncc2c(n1)N(C)c1ccccc1C(=O)N2C [Compound 150] | > 1000 |
| CCOc1cc(N2CCC(C(=O)NCCOCCNC(=O)O[C@H]3CC[C@H](Cc4cc(-n5nc(C)c6c5CC(C)(C)CC6=O)ccc4C(N)=O)CC3)CC2)ccc1N(CC)c1ncc2c(n1)N(C)c1ccccc1C(=O)N2C [Compound 151] | > 1000 |

Continued, values first:

| IC50 [nM] | SMILES |
| --- | --- |
| < 100 | CCNC(=O)c1nnc(-c2cc(CC)c(O)cc2O)n1-c1ccc(CN2CCN(CC3CCN(C(=O)C[C@@H]4N=C(c5ccc(Cl)cc5)c5c(sc(C)c5C)-n5c(C)nnc54)CC3)CC2)cc1 [Compound 59] |
| < 100 | Cc1sc2c(c1C)C(c1ccc(Cl)cc1)=N[C@@H](CC(=O)N1CCC(CN3CCN(Cc4ccc(-n5c(C(N)=O)nnc5-c5cc(C(C)C)c(O)cc5O)cc4)CC3)CC1)c1nnc(C)n1-2 [Compound 78] |
| < 100 | CCN(CC)CCNC(=O)c1nnc(-c2cc(C(C)C)c(O)cc2O)n1-c1ccc(CN2CCN(CC3CCN(C(=O)C[C@@H]4N=C(c5ccc(Cl)cc5)c5c(sc(C)c5C)-n5c(C)nnc54)CC3)CC2)cc1 [Compound 90] |
| > 1000 | Cc1cc(C(=O)N2Cc3ccc(CN4CCN(C(=O)C[C@@H]5N=C(c6ccc(Cl)cc6)c6c(sc(C)c6C)-n6c(C)nnc65)CC4)c(F)c3C2)c(O)cc1O [Compound 99] |
| 100 to 1000 | Cc1sc2c(c1C)C(c1ccc(Cl)cc1)=N[C@@H](CC(=O)N1CCN(Cc3ccc4c(c3F)CN(C(=O)c3cc(C(C)C)c(O)cc3O)C4)CC1)c1nnc(C)n1-2 [Compound 100] |
| < 100 | CCc1cc(-c2nnc(C(=O)NC3CC3)n2-c2ccc(CN3CCN(CC4CCN(C(=O)C[C@@H]5N=C(c6ccc(Cl)cc6)c6c(sc(C)c6C)-n6c(C)nnc65)CC4)CC3)cc2)c(O)cc1O [Compound 101] |
| < 100 | CCc1cc(-c2nnc(C(=O)NC(C)C)n2-c2ccc(CN3CCN(CC4CCN(C(=O)C[C@@H]5N=C(c6ccc(Cl)cc6)c6c(sc(C)c6C)-n6c(C)nnc65)CC4)CC3)cc2)c(O)cc1O [Compound 102] |
| 100 to 1000 | Cc1sc2c(c1C)C(c1ccc(Cl)cc1)=N[C@@H](CC(=O)N1CCN(Cc3ccc(-n4c(O)nnc4-c4cc(C(C)C)c(O)cc4O)cc3)[C@H](C)C1)c1nnc(C)n1-2 [Compound 106] |
| 100 to 1000 | Cc1sc2c(c1C)C(c1ccc(Cl)cc1)=N[C@@H](CC(=O)N1CCN(Cc3ccc(-n4c(O)nnc4-c4cc(C(C)C)c(O)cc4O)cc3)[C@@H](C)C1)c1nnc(C)n1-2 [Compound 107] |
| > 1000 | COc1cc(O)c(C(C)C)cc1-c1nnc(O)n1-c1ccc(CN2CCN(CC3CCN(C(=O)C[C@@H]4N=C(c5ccc(Cl)cc5)c5c(sc(C)c5C)-n5c(C)nnc54)CC3)CC2)cc1 [Compound 108] |
| 100 to 1000 | CCOc1cc(N2CCC(C(=O)NCc3ccc(-n4c(O)nnc4-c4cc(C)c(O)cc4O)cc3)CC2)ccc1Nc1ncc2c(n1)N(C)c1ccccc1C(=O)N2C [Compound 120] |
| 100 to 1000 | CCCc1cc(-c2nnc(O)n2-c2ccc(CN3CCN(C(=O)C4CCN(c5ccc(Nc6ncc7c(n6)N(C)c6ccccc6C(=O)N7C)c(OCC)c5)CC4)CC3)cc2)c(O)cc1O [Compound 128] |
| 100 to 1000 | CCOc1cc(N2CCC(C(=O)NCc3ccc(CN4CCC(Cc5ccc(-n6c(C(=O)NC(C)C)nnc6-c6cc(C(C)C)c(O)cc6O)cc5)CC4)cc3)CC2)ccc1Nc1ncc2c(n1)N(C)c1ccccc1C(=O)N2C [Compound 130] |
| > 1000 | COc1cccc(-c2cc(C(=O)Nc3ccc(-c4ccc(OC5CCN(C)CC5)cc4COCN(C)CC[C@@H]4N=C(c5ccc(Cl)cc5)c5c(sc(C)c5C)-n5c(C)nnc54)cc3)ccc2OC)c1 [Compound 133] |
| 100 to 1000 | CCOc1cc(N2CCC(C(=O)N3CCN(CCOc4ccc(Nc5cc(-n6nc(C(F)(F)F)c7c6CC(C)(C)CC7=O)ccc5C(N)=O)cc4)CC3)CC2)ccc1Nc1ncc2c(n1)N(C)c1ccccc1C(=O)N2C [Compound 149] |
